Reference: paper PMC3248787 (Bioorganic & medicinal chemistry letters, 2011)

How the values were obtained:
purified HDAC8 = biological target: T1, purified HDAC8 (Homo sapiens, UniProt Q9BY41); assay: small-molecule microarray; type: binding; conditions: SMM screen
T1 sequence (Q9BY41 1-377): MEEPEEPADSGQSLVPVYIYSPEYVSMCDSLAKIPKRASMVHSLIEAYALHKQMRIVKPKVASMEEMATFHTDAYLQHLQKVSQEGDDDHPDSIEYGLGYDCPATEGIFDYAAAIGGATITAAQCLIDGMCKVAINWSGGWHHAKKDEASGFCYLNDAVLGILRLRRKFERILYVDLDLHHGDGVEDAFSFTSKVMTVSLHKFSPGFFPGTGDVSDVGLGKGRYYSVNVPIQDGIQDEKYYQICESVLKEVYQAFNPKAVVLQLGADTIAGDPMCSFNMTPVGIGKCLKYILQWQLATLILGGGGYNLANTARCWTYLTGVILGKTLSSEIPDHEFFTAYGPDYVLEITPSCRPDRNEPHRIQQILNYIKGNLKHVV

trypsin = trypsin counter screen
[1] = tested on: acetylated lysine in HeLa cells; assay: immunofluorescence, acetylated lysine in HeLa cells; type: cell-based; conditions: 16 h, normalized to DMSO control
[2] = tested on: acetylated α-tubulin in HeLa cells; assay: immunofluorescence, acetylated α-tubulin in HeLa cells; type: cell-based; conditions: 16 h, normalized to DMSO control

Row | binding to purified HDAC8 on small-molecule microarray (purified HDAC8) | Structure (SMILES) | interference with the proteolytic activity of trypsin (trypsin) | acetylated lysine level [1] | acetylated α-tubulin level [2]
1 | binder | CC(=O)Nc1ccc(C(=O)CSc2nc(C)cc(O)n2)cc1 [Compound 7] | does not interfere with the proteolytic activity of trypsin |  | 
2 |  | O=C(CCCCCCC(=O)Nc1ccccc1)NO [SAHA, suberoylanilide hydroxamic acid] |  | increases both global lysine and α-tubulin acetylation levels | increases both global lysine and α-tubulin acetylation levels
3 |  | Nc1ccccc1NC(=O)c1ccc(CNC(=O)OCc2cccnc2)cc1 [MS-275] |  | increased global lysine acetylation | little change in tubulin acetylation
